Assay results as given in patent publication US20240335427A1, “SMALL MOLECULE INHIBITION OF DEUBIQUITINATING ENZYME JOSEPHIN DOMAIN CONTAINING 1 (JOSD1) AS A TARGETED THERAPY FOR LEUKEMIAS WITH MUTANT JANUS KINASE 2 (JAK2)” (DANA-FARBER CANCER INSTITUTE, INC., priority 2021, published 2024).

Key:
JOSD1 [1] = target: T1, JOSD1 (Homo sapiens (Human), UniProt Q15040); test: biochemical
Experimental: (§3) In vitro JOSD1 activity assay & Ubiquitin-7-amido-4-methylcoumarin (AMC) assay. In vitro JOSD1 activity assay was carried out with Ubiquitin-AMC assay. […] Recombinant JOSD1 was tested for activity in a Ubiquitin-AMC assay in the presence or absence of inhibitors. […] The reaction was incubated for 6 hours at room temperature prior to the addition of 2 μM Ubiquitin-AMC (Boston Biochem) substrate. The initial rate of the reaction was measured by collecting fluorescence data at one-minute intervals over a 30-minute period using a Clariostar® fluorescence plate reader at excitation and emission wavelengths of 345 and 445 nm, respectively. The calculated initial rate values were plotted against inhibitor concentrations to determine IC50 values.
(§4) In vitro JOSD1 activity assay. Recombinant full-length JOSD1 was tested for activity in a Ubiquitin-AMC assay in the presence or absence or inhibitors. For this assay, 10 nM JOSD1 was pre-incubated with different concentrations of inhibitors or DMSO as a control in 50 mM Tris 8.0, 0.5 mM EDTA, 10 mM ovalbumin, 5 mM DTT. The reaction was incubated for 6 h at room temperature prior to the addition of 2 mM Ubiquitin-AMC (Boston Biochem) substrate. The initial rate of the reaction was measured by collecting fluorescence data at one-minute intervals over a 30-minute period using a CLARIOstar® fluorescence plate reader at excitation and emission wavelengths of 345 and 445 nm, respectively. The calculated initial rate values were plotted against inhibitor concentrations to determine IC50 values.
(§5) JOSD1 biochemical inhibition was investigated for the analogs shown using the fluorescent substrate ubiquitin-rhodamine against purified enzyme in a continuous kinetic assay.

UCHL1 = UCHL1 (Homo sapiens (Human), UniProt P09936); test: UCHL1 biochemical inhibition (ubiquitin hydrolase activity, purified enzyme)
Chain of UCHL1 (P09936 whole entry, species assumed): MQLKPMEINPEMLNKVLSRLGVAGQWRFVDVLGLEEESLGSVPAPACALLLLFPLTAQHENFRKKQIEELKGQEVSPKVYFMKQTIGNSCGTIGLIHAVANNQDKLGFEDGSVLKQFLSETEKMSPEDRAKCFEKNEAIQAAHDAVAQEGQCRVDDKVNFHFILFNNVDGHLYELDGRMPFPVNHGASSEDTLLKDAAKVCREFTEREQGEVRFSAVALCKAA

USP30 = USP30 (Homo sapiens (Human), UniProt Q70CQ3); test: USP30 biochemical IC50
Chain of USP30 (Q70CQ3 whole entry, species assumed): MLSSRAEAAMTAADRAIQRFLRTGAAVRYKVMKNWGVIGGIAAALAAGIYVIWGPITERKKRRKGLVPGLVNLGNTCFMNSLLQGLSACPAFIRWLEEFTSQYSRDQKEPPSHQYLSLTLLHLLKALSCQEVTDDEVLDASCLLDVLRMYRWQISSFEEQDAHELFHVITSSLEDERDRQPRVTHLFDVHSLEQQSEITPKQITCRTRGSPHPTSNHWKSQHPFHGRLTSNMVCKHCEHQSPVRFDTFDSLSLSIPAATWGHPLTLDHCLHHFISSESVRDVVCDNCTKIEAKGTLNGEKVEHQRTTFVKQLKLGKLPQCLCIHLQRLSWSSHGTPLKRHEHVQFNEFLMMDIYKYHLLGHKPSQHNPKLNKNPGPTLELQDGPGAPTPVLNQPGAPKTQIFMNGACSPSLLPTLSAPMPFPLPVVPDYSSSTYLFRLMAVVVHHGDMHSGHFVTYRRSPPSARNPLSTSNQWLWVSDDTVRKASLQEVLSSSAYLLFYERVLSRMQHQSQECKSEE

[2] = tested on: native DUBs (UCHL1, USP30 and JOSD1); test: Competitive activity-based protein profiling with quantitative mass spectrometry in HEK-293T lysates; type: binding; settings: block of labeling by DUB activity-based probes
Experimental: Activity Based Protein Profiling (ABPP) assay. DUB targets were investigated using competitive ABPP with quantitative mass spectrometry. The ability to block labeling of 50 DUBs by ubiquitin-based DUB activity-based probes was quantitatively measured in HEK-293T lysates.
DUB ABPP of Compound Targets. Activity-based probes biotin-Ub-PA (UbiQ-076) and biotin-Ub-VME (UbiQ-054) were obtained from UbiQ Bio. DUB Activity based protein profiling was performed using conditions modified from those in Schauer, et al., 2020, Scientific Reports, 10:1-15, based on work by Lawson, et al., 2017 Oncotarget, 8:51296-316. HEK 293T cells were lysed (50 mM Tris pH 8.0, 150 mM NaCl, 5 mM MgC2, 0.5 mM EDTA, 0.5% NP-40, 10% glycerol, 1 mM tris(2-carboxyethyl)phosphine (TCEP), protease and phosphatase inhibitors) and the lysate was clarified by centrifugation, then diluted to 10 mg/mL. 200 μL aliquots were incubated at the indicated compound concentrations or DMSO for 5 hours at room temperature, final DMSO concentration 0.5%. Afterwards, the treated lysates were incubated with 1 μM each of Biotin-Ub-PA and Biotin-Ub-VME for 90 minutes at room temperature. […]
Specifically, quantitative mass spectrometry was utilized to measure the ability of compounds 1 and 2 to block labeling of […] native DUBs by ubiquitin-based DUB activity-based probes in HEK-293T lysates. […]

[3] = tested on: Ba/F3-EPOR-JAK2-V617F-expressing cells; test: Ba/F3 cell proliferation (CellTiter Glo); type: cell-based, murine
Experimental: Proliferation and Drug Combination Studies. Proliferation and drug combination studies were carried out as previously described (Yang, et al., 2020, British Journal of Cancer, 122:1175-84).
As toxicities can result from small molecule targeting of both oncogenic mutated JAK2 as well as its non-mutated counterpart, a chemical genetics screen was designed and performed of a DUB-focused small molecule inhibitor library with the goal of leveraging crosstalk between phosphorylation and ubiquitination to identify DUB inhibitors able to selectively degrade mutant JAK2 while sparing wt JAK2. Of relevance, activated FLT3 can be selectively degraded over the wt enzyme by inhibition of the DUB, USP10, (Wernig, et al., 2008, Blood, 111(7):3751-9) and similar to FLT3, JAK2 is ubiquitinated in an activation-dependent manner. In brief, the library of known and novel DUB inhibitors was evaluated for ability to suppress growth of Ba/F3-EPOR-JAK2-V617F-expressing cells selectively over Ba/F3-EPOR cells growing in the presence of interleukin-3.
(§1) A broader range of compounds 1 and 2, including concentrations lower than 1 μM, were also tested on growth of EPOR-JAK2-V617F-expressing Ba/F3 cells and parental Ba/F3 EpoR+ cells (24 hours treatment on 4000 cells per well) (FIG. 18-FIG. 18B). Cell growth inhibition (FIG. 17A-FIG. 17B, FIG. 18A-FIG. 18B) was tested on Ba/F3-EPOR-JAK2-V617F (-IL-3/WEHI) and parental Ba/F3-EPOR cells (+IL-3/WEHI) plated at 2000 cells per well, at 1, 3 and 10 μM for 24 hours using the Promega CellTiter Glo® assay.

JAK2-V617F [4] = test: JAK2 protein level by western blotting in Ba/F3-EPOR-JAK2-V617F cells; type: cell-based
Experimental: Immunoblotting and Immunoprecipitation. Protein lysate preparation, immunoblotting, and immunoprecipitation were carried out as previously described (Lamberto, et al., 2017 Cell Chem Biol., 224(12):1490-500 e11). Briefly, 0.7×10^6 cells were treated with compounds 1 and 2 at 0, 5, 10, […], cells were collected, and lysate was prepared in radioimmunoprecipitation assay (RIPA) buffer, JAK family and downstream signaling protein levels were detected by western blotting with the indicated antibodies. For immunoprecipitation, 1 mg protein for each sample was prepared and 1 μg antibody was used, immunoglobulin G (IgG) was added in same amount as nontargeting control.
as §1

wt JAK2 = wt JAK2 (Mus musculus (Mouse), UniProt Q62120); test: JAK2 protein level by western blotting in Ba/F3-EPOR-JAK2 wt cells; type: cell-based
Experimental: (§2) Immunoblotting and Immunoprecipitation. Protein lysate preparation, immunoblotting, and immunoprecipitation were carried out as previously described (Lamberto, et al., 2017 Cell Chem Biol., 224(12):1490-500 e11). Briefly, 0.7×10^6 cells were treated with compounds 1 and 2 at 0, 5, 10, and 20 μM for 16 or 24 hours, cells were collected, and lysate was prepared in radioimmunoprecipitation assay (RIPA) buffer, JAK family and downstream signaling protein levels were detected by western blotting with the indicated antibodies. For immunoprecipitation, 1 mg protein for each sample was prepared and 1 μg antibody was used, immunoglobulin G (IgG) was added in same amount as nontargeting control.

HEL cells = test: HEL cell growth inhibition by fresh or aged drug stocks (stability); type: cell-based, human; settings: stocks stored two to three years at −20° Celsius; 2.5, 5, 10, 20 μM, 24 hours
Experimental: Fresh or aged stocks of compounds 1 and 2 were tested for the ability to inhibit HEL cell growth at 2.5, 5, 10, and 20 μM of each drug after 24 hours (FIG. 19A-FIG. 19B).
The CellTiter Glo® assay was performed using HEL cells seeded at 1000 cells/well of a 96-well plate. The “fresh” drug stocks were obtained frozen (stored at −20° Celsius) within days of executing the proliferation experiment for which results are shown. The “aged” drug stocks were obtained from freeze-thawed stocks serially diluted and stored at −20° Celsius in the laboratory. The “aged” stocks were stored between at least two years to three years at −20° Celsius with little to no freeze-thaw cycles prior to execution of the proliferation experiment for which results are shown. “Aged” stocks may be stored for several years (e.g., at least one year, at least two years, at least three years, at least four years or more) at −20° Celsius prior to use.

JAK2-V617F [5] = target: JAK2-V617F (Homo sapiens (Human), UniProt O60674, V617F); test: JAK2-V617F protein loss in human AML cell lines by western blotting; type: cell-based; settings: HEL cells, co-treatment with cycloheximide
Experimental: as §2

normal bone marrow cells = test: Normal bone marrow colony assay; type: cell-based, human
Experimental: Normal human bone marrow was also analyzed in a colony assay: 24-well plates seeded with 200 cells/well in MethoCult™ H4434 Classic (methylcellulose-based medium with recombinant cytokines for human cells) ([…] Technologies™ INC., Vancouver, British Columbia, Canada). The plates contained targeted JOSD1 inhibitors at the indicated concentrations. Plates were incubated at 37° C. in 5% CO2 for >1 week, and then myeloid and erythroid colonies (early progenitors with erythroid and myeloid components: colony-forming unit for granulocytes and macrophages (CFU-GM), CFU-erythroid (E), BFU-E, and CFU-granulocyte, erythroid, macrophage, megakaryocyte (GEMM) were counted on an inverted microscope.

JOSD1 [6] = target: T1, JOSD1; test: In vitro JOSD1 activity assay (biochemical IC50, purified enzyme)
Experimental: as §3, §4, §5

Structure (SMILES)	IC50 (JOSD1 [1])	UCHL1 biochemical IC50 (range in words) (UCHL1)	USP30 biochemical IC50 (range in words) (USP30)	target engagement of UCHL1, USP30 and JOSD1 [2]	killing of Ba/F3-EPOR-JAK2-V617F cells compared to wt JAK2-expressing parental Ba/F3 cells [3]	sensitivity compared to Ba/F3 cells overexpressing other oncogenes [3]	cell growth inhibition ([3]; 1, 3 and 10 μM, 24 hours, independent experiments)	JAK2 degradation, independent western blotting (JAK2-V617F [4]; 18 hours, 10 μM compound 1 or 5 μM compound 2)	JAK2-V617F protein level (JAK2-V617F [4]; Ba/F3-EPOR-JAK2-V617F-expressing cells)	JAK2 levels in wt cells (wt JAK2)	stability: growth inhibition by aged stocks versus fresh stocks (HEL cells)	JAK2-V617F protein half-life (JAK2-V617F [5])	normal bone marrow colony formation (normal bone marrow cells; 5 μM or higher)	normal bone marrow colony formation (normal bone marrow cells; concentrations up to 2.5 μM)	JOSD1 IC50 (range in words) (JOSD1 [6])
CCS(=O)(=O)N1CCN(c2nc3cccc(-c4c(C)noc4C)c3s2)C(=O)C1 [Compound 66]	> 100 nM	–	–	–	–	–	–	–	–	–	–	–	–	–	–
Cc1noc(C)c1-c1ccc2nc(NC(=O)[C@H]3CCN(C#N)C3)sc2c1 [Compound 1, (S)-1-cyano-N-(6-(3,5-dimethylisoxazol-4-yl)benzo[d]thiazol-2-yl)pyrrolidine-3-carboxamide]	–	several hundred	several hundred	dose-dependent target engagement	selective killing	among the highest sensitivity	inhibit growth	degradation of JAK2	decreases in JAK2-V617F protein	little to no impact on JAK2 levels	comparable cell growth inhibition	shorten JAK2-V617F protein half-life	significantly impaired	colonies were able to form	several hundred
